# Measured values published in PubChem BioAssay (NCI).
# “And” between values parts separate entries of the source, which are not always exact repeats. Equal entries are not always repeated.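 48-hour exposure; five concentrations; linearly interpolated endpoints. Here, GI50 denotes the concentration required for 50% inhibition of growth. At the TGI there is no net growth.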
# What was measured:
# Test in all cases: DTP human tumour cell line panel, 48 h
# [1] = test system: MCF7 breast
# [2] = test system: UO-31 renal
# [3] = test system: T-47D breast
# [4] = test system: DU-145 prostate
# [5] = test system: RPMI-8226 leukemia
# [6] = test system: OVCAR-5 ovarian
# [7] = test system: COLO 205 colon
# [8] = test system: MDA-MB-231 breast
# [9] = test system: HCT-116 colon
# [10] = test system: HCC-2998 colon
Structure (SMILES),GI50 [1] [µM],TGI [1] [µM],GI50 [2] [µM],TGI [2],GI50 [3] [µM],TGI [3] [µM],GI50 [4] [µM],TGI [4] [µM],GI50 [5] [µM],TGI [5] [µM],GI50 [6] [µM],TGI [6] [µM],GI50 [7] [µM],TGI [7],GI50 [8] [µM],TGI [8],GI50 [9] [µM],TGI [9] [µM],GI50 [10] [µM],TGI [10] [µM]
C#CCN(Cc1nc2cc(C(F)(F)F)ccc2nc1-c1ccccc1)c1ccc(F)cc1,23.2,> 100,31.2,> 100 µM,20.8,> 100,39.4,> 100,23.3,68.7,75.6,> 100,13.8,50.5 µM,21.6,56.8 µM,20.8,> 100,,
O=C(Nc1ccc(-n2ccc3c(NC(=O)c4ccccc4)nccc32)cc1)c1ccc(N2CCOCC2)c(C(F)(F)F)c1,0.0734,25,0.557,19.5 µM,2.65,> 41.1,0.105,> 87.6,0.0912,> 100,4.83,> 76.1,0.364,32.4 µM,4.07,> 60.9 µM,0.035,15.7,0.6,> 53
CCC(=O)Nc1ncnc2ncn(C(=O)CC)c12,,> 100,,> 100 µM,,> 100,,> 100,,> 100,,> 100,,,,> 100 µM,,> 100,,> 100
COC(=O)[C@H](Cc1cn(C)cn1)NC(=O)[C@@H](NC(=O)Nc1cc(C(F)(F)F)cc(C(F)(F)F)c1)C(C)(C)C,> 10,> 10,> 10,> 10 µM,> 10,> 10,> 10,> 10,> 10,> 10,> 10,> 10,> 10,> 10 µM,> 10,> 10 µM,> 10,> 10,> 10,> 10
CSC1SCC2C(=O)N(C)C(C(C)C)C(=O)OCC(NC(=O)c3cnc4ccccc4n3)C(=O)NC(C)C(=O)N(C)C1C(=O)N(C)C(C(C)C)C(=O)OCC(NC(=O)c1cnc3ccccc3n1)C(=O)NC(C)C(=O)N2C (stereo not given),< 0.001,,0.00328,,< 0.001,,< 0.001,,< 0.001,,< 0.001,,< 0.001,,,0.00192 µM and 0.00985 µM and 0.0142 µM,,,< 0.001,
O=C(O)CNC(=O)C1NC(C(F)(F)F)(C(F)(F)F)OC1(C(F)(F)F)C(F)(F)F (stereo not given),,> 100,,> 100 µM,,> 100,,> 100,,> 100,,> 100,,> 100 µM,,> 100 µM,,> 100,,
CCCC(=O)Nc1c(I)cc(I)c(CC(CC)C(=O)O)c1I (stereo not given),> 100,> 100,> 100,> 100 µM,> 100,> 100,> 100,> 100,> 100,> 100,> 100,> 100,> 100,> 100 µM,> 100,> 100 µM,> 100,> 100,> 100,> 100
CCCCCCC(O)C(O)CCC(O)C1CCC(CCCCC(O)CC2=CC(C)OC2=O)O1 (stereo not given),10.1,28,16,7.75 µM and 35.2 µM,4.99,40.7,,,,30.6,23.7,46.2,14.4,4.36 µM and 29.7 µM,18.5,6.4 µM and 46.9 µM,1.28,25.3,,34.5
CNC(=S)N(C1CCCCC1)C1CCCCC1,,> 100,,> 100 µM,,> 100,,> 100,,> 100,,> 100,,> 100 µM,,> 100 µM,,> 100,,> 100
CC(=Nc1ccccc1)C1=C(O)C(Cc2ccc(F)cc2)NC1=O (stereo not given),0.412,> 100,5.42,> 100 µM,0.793,> 100,2.12,> 100,0.859,> 100,5.21,> 100,0.421,3.21 µM,1.7,> 100 µM,0.49,> 100,1.73,40.1
S=C1SCN(C2CCCCCCCCCCC2)CN1C1CCCCCCCCCCC1,,> 100,,> 100 µM,,> 100,,> 100,,> 100,,> 100,,> 100 µM,,> 100 µM,,> 100,,
Cc1nc2ccccc2c(/C=C/c2ccccc2)c1C(=O)/C=C/c1ccccc1,,,1.33,2.61 µM,,,,,,,1.93,3.52,1.82,4.44 µM,2.3,7.37 µM,1.11,2.56,1.86,3.53
COc1cc2c(cc1OC)-c1ncc3cc(OC)c(OC)cc3c1C2,> 50,> 50,> 50,> 50 µM,> 50,> 50,> 50,> 50,14,> 50,> 50,> 50,> 50,> 50 µM,> 50,> 50 µM,> 50,> 50,,
CC(C)=CCc1c(O)c(C(=O)CC(C)C)c(O)c2c(-c3ccccc3)cc(=O)oc12,11.8,> 50,8.85,> 50 µM,11.3,42.1,15.5,> 50,2.68,16.6,,,9.75,19 µM,8.26,22 µM,7.27,43.3,11.7,> 50
CCCCCC(=C/c1ccccc1)/C=N/N=C(N)N,1.34,2.74,1.19,2.5 µM,1.65,3.62,1.57,2.94,1.42,3.55,1.74,3.69,1.65,3.17 µM,,,1.32,2.72,,
C[C@H](C(O)CC(=O)C(C)(C)O)[C@H]1CC[C@@]2(C)[C@@H]3CC[C@H]4C(C)(C)[C@@H](OC5OC(COC6OC(CO)C(O)C(O)C6O)C(O)C(O)C5O)CC[C@]4(C)C3=CC[C@]12C (stereo not given in full),,> 100,,> 100 µM,,> 100,,> 100,,> 100,,> 100,,> 100 µM,,> 100 µM,,> 100,,> 100
COc1ccccc1N1CCN(CCCOc2ccc(C(=O)/C=C3/C(=O)Nc4ccccc43)cc2)CC1,7.17,31.8,16.3,> 100 µM,4.73,> 73,15,38.1,2.6,28.6,16.6,59.9,12.7,33.2 µM,9.63,37.6 µM,5.75,23.5,13.9,32

Structure (SMILES),GI50 [1] [µM],TGI [1] [µM],GI50 [2] [µM],TGI [2],GI50 [3] [µM],TGI [3] [µM],GI50 [4] [µM],TGI [4] [µM],GI50 [5] [µM],TGI [5] [µM],GI50 [6] [µM],TGI [6] [µM],GI50 [7] [µM],TGI [7],GI50 [8] [µM],TGI [8],GI50 [9] [µM],TGI [9] [µM],GI50 [10] [µM],TGI [10] [µM]
N#CC(C(=O)O)C(c1c(Cl)cccc1Cl)C(C#N)C(=O)O (stereo not given),,> 100,,> 100 µM,,> 100,,> 100,,> 100,,> 100,,> 100 µM,,> 100 µM,,> 100,,
CCCc1n(Cc2ccc3ccccc3n2)cc[n+]1Cc1ccc2ccccc2c1,0.647,4.7,12,25.3 µM,0.307,5.55,1.52,12.8,0.275,1.62,2.39,12.5,0.319,1.34 µM,1.05,2.86 µM,1.06,7.05,0.564,2.33
Cc1ccc(-n2c3c(c4c(CN)c(O)ccc42)CCc2ccccc2C3=O)cc1,17.3,> 100,8.2,22.1 µM,22.8,50.1,17.7,41.7,4.31,23.1,15.8,30.4,19.5,47 µM,14.8,29.2 µM,9.24,21.4,4.05,15.6
COc1ccc(C[C@H]2NC[C@H](O)[C@H]2OC(C)=O)cc1,,0.119,,0.181 µM,,0.754,,0.27,,0.332,,14.5,,0.0256 µM,,0.079 µM,,0.146,,0.0862
COc1ccc2c(c1)c(-c1ccc(-c3cn(C)c4ccc(OC)cc34)o1)cn2C,17.3,> 100,3.6,15 µM,2.72,11.4,> 100,> 100,2.25,5.07,2.79,10.6,5.13,31.1 µM,2.37,22.2 µM,88,> 100,,
C[C@@]1(O)CCC[C@H]1n1c(=O)c(C(F)F)cc2cnc(NC3CCN(S(C)(=O)=O)CC3)nc21,,,1.2,3.97 µM,1.29,> 100,2.18,54.7,1.11,8.64,1.21,> 100,,,1.14,7.04 µM,1.05,> 100,0.539,> 100
CC1(C)OC2COC(c3[nH]nc4c(=O)[nH]c(=O)[nH]c34)C2O1 (stereo not given),,> 100,,> 100 µM,,> 100,,> 100,,> 100,,> 100,,> 100 µM,,> 100 µM,,> 100,,
COc1cc2c(cc1OC)-c1ncc3cc(OC)c(OC)c(OC)c3c1C2,,,5.49,53.6 µM,> 100,> 100,21.7,> 100,3.4,23.1,57.3,> 100,27.7,> 100 µM,2.54,48.7 µM,31.8,> 100,26,95.8
CCOC(=O)C(=O)C(/C(=N/N(C)C)C(=O)Nc1ccc(C)cc1C)c1nc2ccccc2[nH]c1=O (stereo not given),,> 100,,> 100 µM,,> 100,,,,> 100,,> 100,,,,> 100 µM,,> 100,,> 100
COc1cc(=O)oc(/C=C/C=C/C=C/C(C)=C\C2(C)OC(C)C(C)(O)C2O)c1C (stereo not given),,> 100,,> 100 µM,,> 100,,> 100,,> 100,,> 100,,> 100 µM,,> 100 µM,,> 100,,
CC1=CC2=C(C#N)C(=O)OC2(C)C(c2ccccc2)C1 (stereo not given),,,,> 100 µM,,,,> 100,,> 100,,> 100,,,,> 100 µM,,> 100,,
CCCCCN(CCCCC)C(=O)[C@H](CCC(=O)OCc1ccccc1)NC(=O)c1cc2ccccc2[nH]1,,,,> 100 µM,,,,,,7.74,,> 100,,> 100 µM,,,,> 100,,> 100
CN=C(N)NC,,,,> 100 µM,,,,,,> 100,,> 100,,> 100 µM,,,,> 100,,> 100
N.N.NCCCCCN.O=C([O-])CC(=O)[O-].O=C([O-])CC(=O)[O-].[Pt+4].[Pt+4],,,> 100,> 100 µM,,,,,> 100,> 100,> 100,> 100,> 100,> 100 µM,,,> 100,> 100,> 100,> 100
O=C(Nc1ccc(N2CCNCC2)cn1)c1[nH]ncc1Nc1ncnc2sccc12,1.71,4.17,14.4,32 µM,,,3.57,12.2,2.32,6.71,2.08,5.19,1.72,3.88 µM,1.68,3.36 µM,1.15,3.09,12.7,32.1
Nc1nc(CC2(O)CCCCC2)cc(-c2ccccc2)n1,,,,> 91.6 µM,,,,,,78.6,,54.4,,32.9 µM,,,,> 51,,> 81
